Test results from paper PMC7645381, “Development and application of a high-throughput screening assay for identification of small molecule inhibitors of the P. falciparum reticulocyte binding-like homologue 5 protein” (International Journal for Parasitology: Drugs and Drug …, 2020).
pEC50: −log10 of the molar value.

Tests used:
[1] = target: P. falciparum Rh5 (Rh5 – basigin interaction) (Plasmodium falciparum, UniProt Q8IFM5); test: biochemical; set-up: AlphaScreen of Rh5 - His-tagged basigin interaction with anti-Rh5 mAb beads; inhibition of luminescence signal; conditions: Batch Reference=01; primary pilot screen, single point
Experimental: Using the Combi-multidrop, 5 μL of Rh5 stock solution (200 nM prepared in assay buffer) was added to columns 1–24 of the 384-well assay plate (Greiner 384-well white, low binding plate, #784904, Bioone). The PerkinElmer Janus automated dispensing system was then employed to transfer, via the pin-tool, 2 × 100 nL of the compound stock DMSO solution from the compound master plate to the assay plate. The plate was sealed and incubated for 30 min at room temperature. Using a Combi-multidrop, 5 μL of hexa-histidine tagged basigin stock solution (80 nM prepared in assay buffer) was then added to columns 1–23 and 5 μL assay buffer to column 24 of the 384-well assay plate. The plate was sealed again and incubated for 30 min at room temperature. A solution of AlphaScreen donor and acceptor beads (20 μg/mL prepared in assay buffer) plus anti-Rh5 mAb solution (2 μg/mL prepared in assay buffer) was prepared in assay buffer under subdued lighting. Using the Combi-multidrop, 10 μL of this solution was added to every well of the assay plate under subdued lighting. The plate was sealed with foil (plate max) and incubated at room temperature for 1 h. The assay plate was then analysed on the PerkinElmer Envision 2103 Multilabel Plate Reader (Ex 680, Em 520–620 nm). The optimised Rh5 AlphaScreen assay was then validated for HT screening purposes by conducting a pilot screen using known drug library (from Prestwick, Tocris and LOPAC) and the MMV Malaria Box, comprising 3708 and 400 compounds (Fig. 1), respectively. Historically, PPIs are notoriously difficult to target with small molecules. To enhance the likelihood of identifying an inhibitor of the Rh5 - basigin interaction the primary screen was conducted at a compound concentration of 20 μM. A 20 μM screening concentration is considered high, when compared to the commonly used primary screen concentrations of approximately 1–10 μM. To follow-up on hit compounds from the pilot validation screen, we next wanted to confirm the activity of the primary hits. To do this, a two-phase hit confirmation and counterscreen process was undertaken (Fig. 1). In the first phase, the 231 primary hits from both libraries were evaluated in the Rh5 AlphaScreen assay and counterscreen assay. Both assays were undertaken at 10 μM in duplicate. The counterscreen assay was conducted using AlphaScreen TruHits. […] The 45 secondary hits can be viewed in the top left quadrant of Fig. S8. Of the 45 hits, 13 compounds originated from the Malaria Box and 32 compounds from the known drug library.

[2] = system: P. falciparum D10; test: P. falciparum D10 growth inhibition by flow cytometry; format: cell-based; conditions: Plasmodium falciparum, D10; growth inhibition by flow cytometry, 12-point dilution series, 72 h
Experimental: Pranlukast and selected analogues were then evaluated in a P. falciparum parasite viability assay. For this assay, we followed the procedure described by [Gamo et al. (2010)], that used lactate dehydrogenase (LDH) as a readout for parasite viability. In this assay, 3D7 parasites were incubated over 72 h in the presence of increasing concentrations of compounds. […]. For a comparison, selected compounds were incubated in the presence of P. falciparum D10 parasites for 72 h (Table 1, Fig. S14) and growth inhibition measured by flow cytometry. […].

[3] = system: D10-PfPHG parasites; test: Schizont rupture assay; format: cell-based, P. falciparum
Experimental: D10-PfPHG parasites ([Wilson et al., 2010]) were cultured in human O^+ erythrocytes in RPMI-HEPES culture medium (pH 7.4, 50 μg/mL hypoxanthine, 25 mM NaHCO3, 20 μg/mL gentamicin, 0.5% Albumax II (Thermo Fisher Scientific) according to established protocols ([Trager and Jensen, 1976]) and maintained in an atmosphere of 1% O2, 4% CO2 and 95% N2. For assessment of merozoite invasion after schizont rupture, parasites were tightly synchronised to a 4 h window of invasion using heparin ([Boyle et al., 2010]; [Wilson et al., 2015]) and then grown for a further 42 h. Drug treatments were setup at 2–3% parasitaemia and 1% haematocrit in 50 μL volumes with a 1 in 10 dilution of drug added when parasites were 44–48 h post invasion. After 6 h of drug treatment and immediately after invasion was expected to finish, the assays were treated with 5 μg/mL ethidium bromide (EtBr, Bio-Rad) for 5 min prior to flow cytometry assessment of parasitaemia using a Becton Dickinson Accuri. Gating of newly invaded rings, free merozoites and unruptured late stages was achieved as per published methods ([Wilson et al., 2013]).
To determine if the modest activity of pranlukast and analogues in the parasite viability assay was a consequence of invasion inhibition, rather than inhibition at another stage of blood stage parasite development, we performed an assay that measures the effect of compound treatment on P. falciparum D10 asexual stage transition between late schizont and ring stages ([Wilson et al., 2013]). In this assay, highly synchronised mature schizont-stage parasites were incubated with pranlukast and selected analogues at 50 and 100 μM and the transition to newly invaded ring stage parasites was quantified by flow cytometry. In parallel, the rate of schizont rupture and merozoite release was quantified to assess whether any reduction in newly invaded ring stages was due to a block affecting merozoite release or development. […] Neither DMSO (at the maximal concentration used for the drug treatments of 0.1%) or a non-invasion inhibitory mAb control caused a reduction in merozoite invasion. […] […].

[4] = system: HepG2 cells; test: HepG2 growth inhibition assay; format: cell-based; conditions: Homo sapiens, 10-point dilution series, 48 h, Cell Titre-Glo
Experimental: HepG2 cells were cultured in Dulbeccos modified eagle's medium (DMEM) supplemented with 10% fetal calf serum (FCS), in a humidified incubator at 37 °C and 5% CO2. Ten-point compound titration assays were performed by treating cells (1 × 10^3) for 48 h in 384 well tissue culture treated plates (Greiner). Cytotoxicity was determined using Cell Titer Glo (Promega) and calculated as a percentage using DMSO as a positive growth control and 10 μM Bortezomib as a negative growth control. EC50 values were calculated using a 4-parameter log dose, non-linear regression analysis, with sigmoidal dose response (variable slope) curve fit using Graph Pad Prism (version 6.05). 0 and 100 constraint parameters were used for curve fitting. […]

Sequence of P. falciparum Rh5 (Rh5 – basigin interaction) (Q8IFM5 24-526): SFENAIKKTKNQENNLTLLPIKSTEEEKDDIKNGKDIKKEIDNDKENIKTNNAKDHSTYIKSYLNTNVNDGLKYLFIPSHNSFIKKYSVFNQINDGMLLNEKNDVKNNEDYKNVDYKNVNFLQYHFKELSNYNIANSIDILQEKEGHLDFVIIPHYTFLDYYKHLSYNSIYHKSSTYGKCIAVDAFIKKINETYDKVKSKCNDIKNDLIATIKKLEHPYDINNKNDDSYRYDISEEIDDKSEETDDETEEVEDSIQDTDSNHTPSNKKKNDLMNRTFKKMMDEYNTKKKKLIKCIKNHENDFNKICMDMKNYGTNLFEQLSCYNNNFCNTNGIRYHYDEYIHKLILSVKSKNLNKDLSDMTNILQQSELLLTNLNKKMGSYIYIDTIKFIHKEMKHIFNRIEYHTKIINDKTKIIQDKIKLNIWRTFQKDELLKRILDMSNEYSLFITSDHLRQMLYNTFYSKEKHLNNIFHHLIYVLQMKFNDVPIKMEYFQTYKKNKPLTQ

`O=C(Nc1cccc2c(=O)cc(-c3nnn[nH]3)oc12)c1ccc(OCCCCc2ccccc2)cc1` [pranlukast] was tested, and the inhibition at 20 µM [1] was 75.4%, the pEC50 [2] was 4.55 and the “merozoite invasion (newly invaded early ring stages)” value ([3]; 50 and 100 μM, 6 h, flow cytometry) was “substantial reduction in the numbers of merozoites that had invaded and formed early ring stages”. The free merozoite numbers ([3]; lowest concentration tested (50 μM)) was “minimal loss in free merozoite numbers” and the pEC50 [4] was less than 4.30.
